Tests used:
shed/soluble BCMA = test: GSI inhibition of shed/soluble BCMA (sBCMA), ELISA of supernatants, 72 hours, serial dilutions (Example 2, FIG. 8, Table 3); format: cell-based, human; settings: inhibition of BCMA shedding / enhancement of membrane BCMA
Description: Target human cancer cell lines expressing various levels of human BCMA (NCI-H929^[High], MM1S^[Med], U266B1^[low]) were all transduced to constitutively express luciferase, which is used to measure cell viability/survival with the BrightGlo reagent (Promega E2650). Target cells were plated 30,000 cells per well in a 96 well plate (Costar 3904) together with serial dilutions of a panel of gamma secretase inhibitors (Table 2). The plate was incubated at 37° C./5% CO2 for 72 hours, followed by measurements of cell viability (BrightGlo, Promega # E2650) according to vendor protocol. In a replicate set of assay plates, cell culture supernatants were collected by centrifugation and quantified for levels of soluble BCMA by ELISA (R&D Systems, DY193), and the remaining cells were stained with a PE conjugated BCMA antibody (clone 19F2, Biolegend 357504) and analyzed by flow cytometry for BCMA cell surface expression levels.
Raw OD450 values from the BCMA ELISA were plotted together with the mean fluorescent intensity values from flow cytometry analysis of cells stained with anti-BCMA antibody, and are shown for MM1S cells treated with the various GSIs in FIG. 8. Table 3 summarizes the EC50 results of all the GSIs on the three BCMA-expressing cell lines.

[1] = tested on: BCMA cell surface expression; test: BCMA cell surface expression by flow cytometry (PE conjugated BCMA antibody) with or without GSI treatment (Example 1, FIG. 2); format: cell-based, human; settings: BCMA-expressing multiple myeloma cell lines
Description: BCMA expressing cell lines were also treated overnight with and without GSIs. Cell culture supernatants were collected and quantified for levels of soluble BCMA by ELISA (R&D Systems, # DY193). Additionally, remaining cells were pelleted, stained with a PE conjugated BCMA antibody (clone 19F2, Biolegend #357504) and analyzed by flow cytometry for BCMA cell surface expression levels.
BCMA cell surface expression level was determined by flow cytometry on cell lines with or without GSI treatment.

Compound | efficacious concentrations among the panel of GSIs (rank of potency) (shed/soluble BCMA) | cell surface expression of BCMA [1]
C[C@H](c1ccc(F)cc1CCCC(=O)O)N(c1cc(F)ccc1F)S(=O)(=O)c1ccc(Cl)cc1 [BMS-299897] | least | 
C[C@H](NC(=O)Cc1cc(F)cc(F)c1)C(=O)N[C@H](C(=O)OC(C)(C)C)c1ccccc1 [DAPT] |  | strongly enhances
C[C@H](NC(=O)[C@@H](O)c1cc(F)cc(F)c1)C(=O)N[C@@H]1C(=O)N(C)c2ccccc2-c2ccccc21 [LY-411575, (S)-2-((S)-2-(3,5-difluorophenyl)-2-hydroxyacetamido)-N—((S)-5-methyl-6-oxo-6,7-dihydro-5H-dibenzo[b,d]azepin-7-yl)propanamide] | most potent | strongly enhances

Reference: patent US20200179511A1, “BCMA-TARGETING AGENT, AND COMBINATION THERAPY WITH A GAMMA SECRETASE INHIBITOR” (Novartis AG, priority 2017, published 2020)
